Reference: patent US8501770B2 (ArQule, Inc., priority 2009, dated 2013)

Target: Full-length inactive AKT1 (Homo sapiens, UniProt P31749)
Assay: Inactive Akt Alpha Screen Assay
Format: biochemical
Details: values not marked with "*"; read-out: Akt1 IC50, (AlphaScreen)
Outline: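 AlphaScreen read-out (excitation 640 nm, emission 570 nm) after 90 min incubation at room temperature in the dark. Signal comes from crosstide phosphorylation by AKT1, which was activated by added PDK1, MAPKAPK2, ATP and lipid vesicles, captured via phospho-AKT substrate antibody and streptavidin beads.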

Chain of Full-length inactive AKT1 (P31749 whole entry): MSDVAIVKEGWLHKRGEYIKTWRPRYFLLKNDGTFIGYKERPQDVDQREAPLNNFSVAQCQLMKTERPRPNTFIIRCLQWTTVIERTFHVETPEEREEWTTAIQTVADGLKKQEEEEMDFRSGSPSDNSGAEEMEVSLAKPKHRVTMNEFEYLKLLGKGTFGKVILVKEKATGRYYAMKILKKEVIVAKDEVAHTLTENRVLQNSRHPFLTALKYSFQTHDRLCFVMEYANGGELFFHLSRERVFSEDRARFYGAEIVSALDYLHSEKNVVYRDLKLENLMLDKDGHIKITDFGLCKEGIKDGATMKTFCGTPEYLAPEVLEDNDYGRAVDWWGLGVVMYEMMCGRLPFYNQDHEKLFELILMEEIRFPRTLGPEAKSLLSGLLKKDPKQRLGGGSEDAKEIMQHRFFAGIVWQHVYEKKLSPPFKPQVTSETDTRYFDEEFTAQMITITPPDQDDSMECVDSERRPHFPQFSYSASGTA

IC50	SMILES
0.2 µM	Cc1cnc2c(c1)nc(-c1cccnc1N)n2-c1ccc(CNC(=O)c2cn(C)c3ccccc23)cc1 [Example 212, N-(4-(2-(2-aminopyridin-3-yl)-6-methyl-3H-imidazo[4,5-b]pyridin-3-yl)benzyl)-1-methyl-1H-indole-3-carboxamide]
0.48 µM	Cc1cnc2c(c1)nc(-c1cccnc1N)n2-c1ccc(CNC(=O)CCC2CCCCC2)cc1 [Example 213, N-(4-(2-(2-aminopyridin-3-yl)-6-methyl-3H-imidazo[4,5-b]pyridin-3-yl)benzyl)-3-cyclohexylpropanamide]
0.023 µM	Cc1cnc2c(c1)nc(-c1cccnc1N)n2-c1ccc(CNC(=O)c2ccccc2-n2cccc2)cc1 [Example 214, N-(4-(2-(2-aminopyridin-3-yl)-6-methyl-3H-imidazo[4,5-b]pyridin-3-yl)benzyl)-2-(1H-pyrrol-1-yl)benzamide]
0.73 µM	Cc1cnc2c(c1)nc(-c1cccnc1N)n2-c1ccc(CNC(=O)C2Cc3ccccc3C2)cc1 [Example 215, N-(4-(2-(2-aminopyridin-3-yl)-6-methyl-3H-imidazo[4,5-b]pyridin-3-yl)benzyl)-2,3-dihydro-1H-indene-2-carboxamide]
0.077 µM	Cc1cccc(C(=O)NCc2ccc(-n3c(-c4cccnc4N)nc4cc(C)cnc43)cc2)c1 [Example 216, N-(4-(2-(2-aminopyridin-3-yl)-6-methyl-3H-imidazo[4,5-b]pyridin-3-yl)benzyl)-3-methylbenzamide]
0.084 µM	Cc1cnc2c(c1)nc(-c1cccnc1N)n2-c1ccc(CNC(=O)c2ccc(Cl)cc2F)cc1 [Example 217, N-(4-(2-(2-aminopyridin-3-yl)-6-methyl-3H-imidazo[4,5-b]pyridin-3-yl)benzyl)-4-chloro-2-fluorobenzamide]
0.063 µM	Cc1cnc2c(c1)nc(-c1cccnc1N)n2-c1ccc(CNC(=O)c2ccccc2Cl)cc1 [Example 218, N-(4-(2-(2-aminopyridin-3-yl)-6-methyl-3H-imidazo[4,5-b]pyridin-3-yl)benzyl)-2-chlorobenzamide]
0.23 µM	Cc1cnc2c(c1)nc(-c1cccnc1N)n2-c1ccc(CNC(=O)Cc2ccccc2)cc1 [Example 219, N-(4-(2-(2-aminopyridin-3-yl)-6-methyl-3H-imidazo[4,5-b]pyridin-3-yl)benzyl)-2-phenylacetamide]
0.054 µM	CC(=O)Nc1ccc(C(=O)NCc2ccc(-n3c(-c4cccnc4N)nc4cc(C)cnc43)cc2)cc1 [Example 220, 4-acetamido-N-(4-(2-(2-aminopyridin-3-yl)-6-methyl-3H-imidazo[4,5-b]pyridin-3-yl)benzyl)benzamide]
0.26 µM	COc1ccccc1C(=O)NCc1ccc(-n2c(-c3cccnc3N)nc3cc(C)cnc32)cc1 [Example 221, N-(4-(2-(2-aminopyridin-3-yl)-6-methyl-3H-imidazo[4,5-b]pyridin-3-yl)benzyl)-2-methoxybenzamide]
0.043 µM	Cc1cnc2c(c1)nc(-c1cccnc1N)n2-c1ccc(CNC(=O)c2ccc(N(C)C)cc2)cc1 [Example 222, N-(4-(2-(2-aminopyridin-3-yl)-6-methyl-3H-imidazo[4,5-b]pyridin-3-yl)benzyl)-4-(dimethylamino)benzamide]
0.03 µM	Cc1cnc2c(c1)nc(-c1cccnc1N)n2-c1ccc(CNC(=O)c2ccccc2C)cc1 [Example 223, N-(4-(2-(2-aminopyridin-3-yl)-6-methyl-3H-imidazo[4,5-b]pyridin-3-yl)benzyl)-2-methylbenzamide]
0.05 µM	Cc1cnc2c(c1)nc(-c1cccnc1N)n2-c1ccc(CNC(=O)c2cccc3ccccc23)cc1 [Example 224, N-(4-(2-(2-aminopyridin-3-yl)-6-methyl-3H-imidazo[4,5-b]pyridin-3-yl)benzyl)-1-naphthamide]
0.011 µM	Cc1cnc2c(c1)nc(-c1cccnc1N)n2-c1ccc(CNC(=O)c2ccccc2Cc2ccccc2)cc1 [Example 225, N-(4-(2-(2-aminopyridin-3-yl)-6-methyl-3H-imidazo[4,5-b]pyridin-3-yl)benzyl)-2-benzylbenzamide]
0.018 µM	Nc1ncccc1-c1nc2ccc(-c3ccc(CO)cc3)nc2n1-c1ccc(CNC(=O)c2ccccc2)cc1 [Example 226, N-(4-(2-(2-aminopyridin-3-yl)-5-(4-(hydroxymethyl)phenyl)-3H-imidazo[4,5-b]pyridin-3-yl)benzyl)benzamide]
0.47 µM	Cc1cnc2c(c1)nc(-c1cccnc1N)n2-c1ccc(CNC(=O)OC(C)(C)C)cc1 [Example 227, tert-butyl 4-(2-(2-aminopyridin-3-yl)-6-methyl-3H-imidazo[4,5-b]pyridin-3-yl)benzylcarbamate]
0.24 µM	Cc1cnc2c(c1)nc(-c1cccnc1N)n2-c1ccc(CNC(=O)c2ccc(F)cc2)cc1 [Example 228, N-(4-(2-(2-aminopyridin-3-yl)-6-methyl-3H-imidazo[4,5-b]pyridin-3-yl)benzyl)-4-fluorobenzamide]

IC50	SMILES
0.025 µM	CC(=O)Nc1cccc(C(=O)NCc2ccc(-n3c(-c4cccnc4N)nc4cc(C)cnc43)cc2)c1 [Example 229, 3-acetamido-N-(4-(2-(2-aminopyridin-3-yl)-6-methyl-3H-imidazo[4,5-b]pyridin-3-yl)benzyl)benzamide]
0.19 µM	Cc1cnc2c(c1)nc(-c1cccnc1N)n2-c1ccc(CNC(=O)c2ccc(C(C)C)cc2)cc1 [Example 230, N-(4-(2-(2-aminopyridin-3-yl)-6-methyl-3H-imidazo[4,5-b]pyridin-3-yl)benzyl)-4-isopropylbenzamide]
0.02 µM	Cc1cnc2c(c1)nc(-c1cccnc1N)n2-c1ccc(CNC(=O)c2ccc3nc(C)ccc3c2)cc1 [Example 231, N-(4-(2-(2-aminopyridin-3-yl)-6-methyl-3H-imidazo[4,5-b]pyridin-3-yl)benzyl)-2-methylquinoline-6-carboxamide]
0.041 µM	Cc1cnc2c(c1)nc(-c1cccnc1N)n2-c1ccc(CNC(=O)c2cccc(F)c2)cc1 [Example 232, N-(4-(2-(2-aminopyridin-3-yl)-6-methyl-3H-imidazo[4,5-b]pyridin-3-yl)benzyl)-3-fluorobenzamide]
0.14 µM	CC(C)c1ccc(C(=O)NCc2ccc(-n3c(-c4cccnc4N)nc4cc(-c5cccnc5)cnc43)cc2)cc1 [Example 233, N-(4-(2-(2-aminopyridin-3-yl)-6-(pyridin-3-yl)-3H-imidazo[4,5-b]pyridin-3-yl)benzyl)-4-isopropylbenzamide]
0.053 µM	Nc1ncccc1-c1nc2cc(F)cnc2n1-c1ccc(CC(=O)Nc2ccccc2)cc1 [Example 234, 2-(4-(2-(2-aminopyridin-3-yl)-6-fluoro-3H-imidazo[4,5-b]pyridin-3-yl)phenyl)-N-phenylacetamide]
0.13 µM	Nc1ncccc1-c1nc2ccc(-c3ccncc3)nc2n1-c1ccc(CNC(=O)c2ccccc2)cc1 [Example 235, N-(4-(2-(2-aminopyridin-3-yl)-5-(pyridin-4-yl)-3H-imidazo[4,5-b]pyridin-3-yl)benzyl)benzamide]
0.033 µM	CC(=O)Nc1ccc(-c2ccc3nc(-c4cccnc4N)n(-c4ccc(CNC(=O)c5ccccc5)cc4)c3n2)cc1 [Example 236, N-(4-(5-(4-acetamidophenyl)-2-(2-aminopyridin-3-yl)-3H-imidazo[4,5-b]pyridin-3-yl)benzyl)benzamide]
0.032 µM	Nc1ncccc1-c1nc2cc(-c3cc[nH]c3)cnc2n1-c1ccc(CNC(=O)c2ccccc2)cc1 [Example 237, N-(4-(2-(2-aminopyridin-3-yl)-6-(1H-pyrrol-3-yl)-3H-imidazo[4,5-b]pyridin-3-yl)benzyl)benzamide]
0.042 µM	CC(=O)Nc1ccc(C(=O)NCc2ccc(-n3c(-c4cccnc4N)nc4cc(-c5cccnc5)cnc43)cc2)cc1 [Example 238, 4-acetamido-N-(4-(2-(2-aminopyridin-3-yl)-6-(pyridin-3-yl)-3H-imidazo[4,5-b]pyridin-3-yl)benzyl)benzamide]
0.021 µM	Nc1ncccc1-c1nc2cc(-c3cccnc3)cnc2n1-c1ccc(CNC(=O)c2cccc(F)c2)cc1 [Example 239, N-(4-(2-(2-aminopyridin-3-yl)-6-(pyridin-3-yl)-3H-imidazo[4,5-b]pyridin-3-yl)benzyl)-3-fluorobenzamide]
0.016 µM	Nc1ncccc1-c1nc2cc(-c3ccc(C(=O)O)o3)cnc2n1-c1ccc(CNC(=O)c2ccccc2)cc1 [Example 240, 5-(2-(2-aminopyridin-3-yl)-3-(4-(benzamidomethyl)phenyl)-3H-imidazo[4,5-b]pyridin-6-yl)furan-2-carboxylic acid]
0.33 µM	CCOC(=O)Cc1ccc(-n2c(-c3cccnc3N)nc3ccc(Cl)nc32)cc1 [Example 241, ethyl 2-(4-(2-(2-aminopyridin-3-yl)-5-chloro-3H-imidazo[4,5-b]pyridin-3-yl)phenyl)acetate]
0.064 µM	CCOC(=O)Cc1ccc(-n2c(-c3cccnc3N)nc3ccc(-c4cccnc4)nc32)cc1 [Example 242, ethyl 2-(4-(2-(2-aminopyridin-3-yl)-5-(pyridin-3-yl)-3H-imidazo[4,5-b]pyridin-3-yl)phenyl)acetate]
0.32 µM	CCOC(=O)Cc1ccc(-n2c(-c3cccnc3N)nc3ccc(-c4cccc(NC(C)=O)c4)nc32)cc1 [Example 243, ethyl 2-(4-(5-(3-acetamidophenyl)-2-(2-aminopyridin-3-yl)-3H-imidazo[4,5-b]pyridin-3-yl)phenyl)acetate]
0.022 µM	Cc1ccc2cc(C(=O)NCc3ccc(-n4c(-c5cccnc5N)nc5cc(-c6cccnc6)cnc54)cc3)ccc2n1 [Example 244, N-(4-(2-(2-aminopyridin-3-yl)-6-(pyridin-3-yl)-3H-imidazo[4,5-b]pyridin-3-yl)benzyl)-2-methylquinoline-6-carboxamide]
0.014 µM	Cc1ccc2nc(-c3cccnc3N)n(-c3ccc(CNC(=O)c4ccc(C(C)C)cc4)cc3)c2n1 [Example 245, N-(4-(2-(2-aminopyridin-3-yl)-5-methyl-3H-imidazo[4,5-b]pyridin-3-yl)benzyl)-4-isopropylbenzamide]
